# US20220016200A1, “PHARMACEUTICAL COMPOSITION FOR THE TREATMENT OF CYSTIC FIBROSIS” (GALENUS G.H. AG, priority 2018, published 2022)
# Where two headings read alike, the source gives them in different places. Bridge positions count the residues as written; N and C are the ends. Square brackets hold non-standard residues; d marks the D form. Peptide text beside a SMILES is read from it. * marks the point of attachment. Heptanoyl(5-Me) = CCC(C)CCCC(=O)*; Dab = NCC[C@H](N)C(=O)O
# How the values were obtained:
# S. maltophilia 1237289 [1] = assay: Checkerboard fusidic acid (FD) and colistin sulfate (CS), MIC/FIC; type: cell-based, Stenotrophomonas maltophilia; conditions: for MIC: S. maltophilia 1237289, agent alone, CAMHB, 1*10^6 CFU/ml
# Method: (§1) Checkerboard assays between fusidic acid (FD) and colistin sulfate (CS) with a bacterial load 5(1-10)*10^5 CFU/ml in cationic adapted Mueller Hinton broth (CAMHB). • a. Antimicrobial stock solutions were prepared using sterile distilled water; • b. CS was added along the ordinate; FD was added along the abscissa to 96 well, flat bottom, polystyrene panels with no treatment. Colistin alone was tested in triplicates; • c. Serial 2-fold dilutions starting with 640 […] CS and 640 μg/ml FD were made; 15 μl volume of the serial dilutions were added for each agent to the appropriate wells—final volume at 30 μl; • d. For each agent tested alone an additional 15 μl media was added to the well. 30 μl were added in control wells where none of the agent was tested. The negative control well contains 150 μl media without any additions; • e. From an overnight bacterial culture in tryptic soy broth, 100 μL was added to 10 mL of fresh tryptic soy broth. This was then incubated at 37° C. for 1.5 hour at 180 rpm; • f. Bacteria in 120 μl CAMHB were added to each well (end concentration 5(1-10)*10^5 CFU/ml); • g. Plates were incubated at 37° C. in an ambient air incubator for 24 h • h. Turbidity at OD600 is determined with a plate photometer • i. By using a one-time inoculator 3 μl from each well of the 96-well plate were transferred to three blood agar plates. The plates were incubated over night at 37° C. in an ambient air incubator; • j. MIC values are defined as lowest concentration which restricts bacterial growth to OD600≤0.1; • k. MBC values were determined by visual reading the lowest concentration which inhibits 99.9% of the growth of bacteria in the wells; • l. Determination of the fractional inhibitory concentration (FIC) index and fractional bactericidal concentration (FBC) index and characterization of antimicrobial interactions was assessed;
# (§2) FIC calculation was carried out as: (MIC of drug A, tested in combination)/(MIC of drug A, tested alone)+(MIC of drug B, tested in combination)/(MIC of drug B, tested alone). FBC calculation was carried out just as well;
# (§3) Interactive categories were calculated from checkerboard analysis using MIC results from testing each agent alone and MIC results from the combination wells adjacent to the wells with growth in them.
# (§4) Determination of the fractional inhibitory concentration (FIC) index and fractional bactericidal concentration (FBC) index and characterization of antimicrobial interactions was assessed:
# (§5) (ii) Indifference; FIC/FBC>0.5 to <4.0
# (§6) (iii) Antagonism; FIC/FBC≥4.0
# e. Stenotrophomonas maltophilia 1237289 (IHMA), colistin resistant (CS 2/4-4/8-8/8)
# A. junii 1397597 = assay: Checkerboard fusidic acid (FD) and colistin sulfate (CS), MIC/FIC and MBC/FBC; type: cell-based, Acinetobacter junii
# Method: as §1, §2, §3, §4, §5, §6
# a. Acinetobacter junii 1391597 (IHMA), colistin resistant (CS 2/2-2/8)
# S. maltophilia 1237289 [2] = assay: Checkerboard colistin sulphate (CS) plus teicoplanin (TP), MIC/FIC and MBC/FBC; type: cell-based, Stenotrophomonas maltophilia; conditions: agent alone, CAMHB, 5*10^5 CFU/ml; for MIC: S. maltophilia 1237289
# Method: Checkerboard analysis to determine minimal inhibitory concentration (MIC)/fractional inhibitory concentration (FIC) and minimal […] (MBC)/fractional bacterial concentration (FBC) values of colistin sulphate (CS) plus teicoplanin (TP) for 6 Gram-negative strains with a bacterial load 5(1-10)*10^5 CFU/ml in a cation-adjusted Mueller-Hinton broth (CAMHB). • a. Antimicrobial stock solutions were prepared using sterile distilled water • b. CS was added along the ordinate; TP was added along the abscissa to 96 well, flat bottom, polystyrene panels with no treatment. Colistin alone was tested in triplicates. • c. Serial 2-fold dilutions starting with 640 μg/ml CS and 640 μg/ml TP were made; 15 μl volume of the serial dilutions were added for each agent to the appropriate wells; final volume at 30 μl • d. For each agent tested alone an additional 15 μl media was added to the well. 30 μl were added in control wells where none of the agent was tested. The negative control well contains 150 μl media without any additions • e. From an overnight bacterial culture in tryptic soy broth, 100 μL was added to 10 mL of fresh tryptic soy broth. This was then incubated at 37° C. for 1.5 hour at 180 rpm. • f. Bacteria in 120 μl CAMHB were added to each well (end concentration 5(1-10)*10^5 CFU/ml) • g. […] Turbidity at OD600 is determined with a plate photometer • i. By using a one-time inoculator 3 μl from each well of the 96-well plate were transferred to three blood agar plates. The plates were incubated over night at 37° C. in an ambient air incubator • j. MIC values are defined as lowest concentration which restricts bacterial growth to OD600 ≤0.1 • k. MBC values were determined by visual reading the lowest concentration which inhibits 99.9% of the growth of bacteria in the wells • l. Determination of the fractional inhibitory concentration (FIC) index and fractional bactericidal concentration (FBC) index and characterization of antimicrobial interactions was assessed […]
# FIC calculation was carried out as: (MIC of drug A, tested in combination)/(MIC of drug A, tested alone)+(MIC of drug B, tested in combination)/(MIC of drug B, tested alone). FBC calculation was carried out just as well […]
# Interactive categories were calculated from checkerboard analysis using MIC results from testing each agent alone and MIC results from the combination wells adjacent to the wells with growth in them […]
# b. Indifference; FIC/FBC>0.5 to<4.0 c. Antagonism; FIC/FBC≥4.0 f. S. maltophilia 1237289 (IHMA), colistin resistant
# [3] = after 48 h growth (values in brackets)
smiles,measurement,setting,value
"CCC(C)CCCC(=O)N[C@@H](CCN)C(=O)N[C@H](C(=O)N[C@@H](CCN)C(=O)N[C@H]1CCNC(=O)[C@H]([C@@H](C)O)NC(=O)[C@H](CCN)NC(=O)[C@H](CCN)NC(=O)[C@H](CC(C)C)NC(=O)[C@@H](CC(C)C)NC(=O)[C@H](CCN)NC1=O)[C@@H](C)O (stereo partly drawn) [CS, colistin sulphate] ({Heptanoyl(5-Me)}-[Dab]T[Dab][Dab][Dab][dL]L[Dab][Dab]T; lactam 4-C)",MIC,S. maltophilia 1237289 [1]; 24 h,1 mg/1l
same,MIC,S. maltophilia 1237289 [1]; [3],(4) mg/1l
same,MBC,"S. maltophilia 1237289 [1]; Stenotrophomonas maltophilia, 1237289, organism list of Example 3, Stenotrophomonas maltophilia 1237289, repeated determinations",4 µg/mL
same,MIC,"A. junii 1397597; A. junii 1397597, agent alone, CAMHB, 1*10^6 CFU/ml, 24 h",2 mg/1l
same,MBC,"A. junii 1397597; Acinetobacter junii, 1397597, A. junii 1397597, agent alone, CAMHB, 1*10^6 CFU/ml",2 µg/mL
same,MIC,"A. junii 1397597; Acinetobacter junii, 1397597, organism list of Example 3, repeated determinations, read-out: Colistin CS MIC",2 µg/mL
same,MIC,S. maltophilia 1237289 [2]; [3],(8) mg/l
same,MIC,"S. maltophilia 1237289 [2]; Stenotrophomonas maltophilia, 1237289, 24 h, 24 h, read-out: MIC",≤ 0.5 µg/mL
same,MBC,"S. maltophilia 1237289 [2]; Stenotrophomonas maltophilia, S. maltophilia, second of two rows (strain number not given; by order 1237289)",8 µg/mL
